Experimental findings from PMC8346516 (Nature Communications, 2021) are described below.

For the assay, the target named is T1, Lsm12 (Homo sapiens, UniProt Q3MHD2).
T1 construct: hLsm12-HisE.coli: 6×His-tagged human Lsm12 (195 residues in full length) purified from E. coli
Put plainly: competition […]-NAADP radioligand binding with purified protein; also competition pull-down with immobilized NAADP (Kd […]).

T1 sequence (Q3MHD2 whole entry): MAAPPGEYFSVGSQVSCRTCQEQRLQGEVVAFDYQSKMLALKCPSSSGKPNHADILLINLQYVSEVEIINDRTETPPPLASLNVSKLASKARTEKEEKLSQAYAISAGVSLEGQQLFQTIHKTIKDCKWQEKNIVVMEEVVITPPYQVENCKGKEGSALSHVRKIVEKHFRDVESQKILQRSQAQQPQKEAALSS

In the case of `Nc1ncnc2c1ncn2[C@@H]1O[C@H](COP(=O)(O)OP(=O)(O)OC[C@H]2O[C@@H]([n+]3cccc(C(=O)[O-])c3)[C@H](O)[C@@H]2O)[C@@H](O)[C@H]1OP(=O)(O)O` [NAADP], the equilibrium dissociation constant (Kd) was ~20 nM.

For orientation: Kd means a measure of binding affinity in units of concentration.
